Read-outs that look alike come from different tables or passages of the source.
What was measured:
Boophilus microplus = Boophilus microplus test (BOOPMI injection); type: in vivo; conditions: application rate 20 μg/animal; injected into the abdomen; after 7 days
Protocol: Boophilus microplus Test (BOOPMI Injection) Solvent: dimethyl sulphoxide To prepare an appropriate active ingredient formulation, 10 mg of active ingredient are mixed with 0.5 ml of solvent and the concentrate is diluted with solvent to the desired concentration. The active ingredient solution is injected into the abdomen (Boophilus microplus), and the animals are transferred into dishes and stored in a climate-controlled room. After 7 days, the efficacy in % is determined. The activity is assessed by laying of fertile eggs. 100% means that none of the ticks has laid any fertile eggs.

Ctenocephalides felis = Ctenocephalides felis oral (CTECFE); type: in vivo; conditions: application rate 100 ppm in citrated cattle blood; after 2 days
Protocol: Ctenocephalides felis Oral ([…]) Solvent: 1 part by weight of dimethyl sulphoxide For the purpose of preparing an appropriate active ingredient formulation, 10 mg of active ingredient are mixed with 0.5 ml of dimethyl sulphoxide. A portion of the concentrate is diluted with citrated cattle blood, and the desired concentration is prepared. About 20 unfed adult fleas (Ctenocephalides felis) are placed into a chamber which is closed at the top and bottom with gauze. A metal cylinder whose bottom end is closed with Parafilm is placed onto the chamber. The cylinder contains the blood/active ingredient formulation, which can be imbibed by the fleas through the Parafilm membrane. After 2 days, the kill in % is determined 100% means that all of the fleas have been killed; 0% means that none of the fleas have been killed.

Lucilia cuprina larvae = assay: Lucilia cuprina test (LUCICU); type: in vivo; conditions: application rate 100 ppm; treated horse meat; after 2 days
Protocol: (§1) Lucilia cuprina Test (LUCICU) Solvent: dimethyl sulphoxide To prepare an appropriate active ingredient formulation, 10 mg of active ingredient are mixed with 0.5 ml of dimethyl sulphoxide and the concentrate is diluted with water to the desired concentration. Vessels containing horse meat treated with the active ingredient formulation of the desired concentration are populated with about 20 Lucilia cuprina larvae. After 2 days, the kill in % is determined. 100% means that all of the larvae have been killed; 0% means that none of the larvae have been killed.

Phaedon cochleariae = assay: Phaedon test (PHAECO spray treatment); type: in vivo; conditions: application rate 100 g/ha, Chinese cabbage leaf discs, after 7 days; for pest or weed control at 100 g/ha: Phaedon cochleariae, foliar, 168 h, read-out: efficacy in %
Protocol: Phaedon Test ([…] Spray Treatment) Solvent: 78.0 parts by weight of acetone • • 1.5 parts by weight of dimethylformamide Emulsifier: 0.5 part by weight of alkylaryl polyglycol ether To produce an appropriate active ingredient formulation, 1 part by weight of active ingredient is mixed with the stated amounts of solvent and emulsifier, and the concentrate is diluted with emulsifier-containing water to the desired concentration. Leaf discs of Chinese cabbage (Brassica pekinensis) are sprayed with an active ingredient formulation of the desired concentration and, after drying, populated with larvae of the mustard beetle (Phaedon cochleariae). After 7 days, the efficacy in % is determined. 100% means that all of the beetle larvae have been killed; 0% means that none of the beetle larvae have been killed.

Spodoptera frugiperda = Spodoptera frugiperda test (SPODFR spray treatment); type: in vivo; conditions: application rate 100 g/ha; maize leaf discs; after 7 days
Protocol: Spodoptera frugiperda Test (SPODFR Spray Treatment) Solvent: 78.0 parts by weight of acetone • • 1.5 parts by weight of dimethylformamide To produce an appropriate active ingredient formulation, 1 part by weight of active ingredient is mixed with the stated amounts of solvent and emulsifier, and the concentrate is diluted with emulsifier-containing water to the desired concentration. Leaf discs of maize (Zea mays) are sprayed with an active ingredient formulation of the desired concentration and, after drying, populated with caterpillars of the armyworm (Spodoptera frugiperda). After 7 days, the efficacy in % is determined 100% means that all of the caterpillars have been killed; 0% means that none of the caterpillars have been killed.

logP (HPLC-MS) = type: physicochemical
Tetranychus urticae = assay: Tetranychus test, OP-resistant (TETRUR spray treatment); type: in vivo; conditions: bean leaf discs, after 6 days
Protocol: Tetranychus Test, OP-Resistant (TETRUR Spray Treatment)
Solvent: 78.0 parts by weight of acetone • • 1.5 parts by weight of dimethylformamide
Emulgator: 0.5 part by weight of alkylaryl polyglycol ether
To produce an appropriate active ingredient formulation, 1 part by weight of active ingredient is mixed with the stated amounts of solvent and emulsifier, and the concentrate is diluted with emulsifier-containing water to the desired concentration.
Discs of bean leaves (Phaseolus vulgaris) infested by all stages of the red spider mite (Tetranychus urticae) are sprayed with an active ingredient formulation of the desired concentration.
After 6 days, the efficacy in % is determined. 100% means that all of the spider mites have been killed; 0% means that none of the spider mites have been killed.

adult Musca domestica = assay: Musca domestica test (MUSCDO); type: in vivo; conditions: application rate 100 ppm; treated sponge; after 2 days
Protocol: as §1, with “Musca domestica” for “Lucilia cuprina”, “(MUSCDO)” for “(LUCICU)”, “a sponge” for “horse meat”, “adult Musca domestica.” for “about 20 Lucilia cuprina larvae.”, “determined” for “determined.”, “flies” for “larvae”

[1] = HPLC, reversed-phase column (C18), acidic range pH 2.7, acetonitrile (0.1% formic acid)/water gradient, 43° C., calibration with unbranched alkan-2-ones
[2] = HPLC, reversed-phase column (C18), 43° C., acidic range pH 2.7, EEC directive 79/831 Annex V.A8, two values = both regioisomers (G = N)

Structure (SMILES) | efficacy (laying of fertile eggs) (Boophilus microplus) | efficacy (kill in %) (Ctenocephalides felis) | efficacy (kill in %) (Lucilia cuprina larvae) | efficacy in % (Phaedon cochleariae) | efficacy in % (Spodoptera frugiperda) | log p (logP (HPLC-MS); [1]) | efficacy in % (Tetranychus urticae; application rate 100 g/ha) | efficacy in % (Tetranychus urticae; application rate 500 g/ha) | efficacy (kill in %) (adult Musca domestica) | pest or weed control at 100 g/ha (Phaedon cochleariae) | chromatographic logP (logP (HPLC-MS); HPLC, reversed-phase column (C18), acidic range pH 2.7, acetonitrile (0.1% formic acid)/water gradient, 43° C., calibration with unbranched alkan-2-ones, read-out: log p) | chromatographic logP (logP (HPLC-MS); HPLC-MS) | log p (logP (HPLC-MS); [2]) | chromatographic logP (logP (HPLC-MS); HPLC, reversed-phase column (C18), 43° C., acidic range pH 2.7, EEC directive 79/831 Annex V.A8, two values = both regioisomers (G = N), read-out: log p)
CCn1c(C(=O)NC(c2cccc(C(F)(F)F)c2)C(F)(F)F)cc2cc(C(=O)NC(C)CF)c(Cl)cc21 (stereo not drawn) [Compound 8] | 100% | 95% | 100% | 100% | 100% | 3.88 | – | – | – | – | – | – | – | –
CCn1c(C(=O)NC(c2cccc(Br)c2)C(F)(F)F)cc2cc(C(=O)NC3(C#N)CC3)c(Cl)cc21 (stereo not drawn) [Compound 41] | 100% | 100% | 100% | – | 100% | 3.75 | 100% | – | – | – | – | – | – | –
CCn1c(C(=O)NC(c2cccc(C(F)(F)F)c2)C(F)(F)F)cc2cc(C(=O)NC(CF)CF)c(Cl)cc21 (stereo not drawn) [Compound 11] | 100% | 80% | 100% | 100% | – | 3.86 | – | – | – | – | – | – | – | –
CCn1c(C(=O)NC(c2cccc(C(F)(F)F)c2)C(F)(F)F)cc2cc(C(=O)NC3(C(=O)OC)CC3)c(Cl)cc21 (stereo not drawn) [Compound 28] | 100% | 95% | 100% | 100% | 83% | 3.86 | – | 100% | – | – | – | – | – | –
CCn1c(C(=O)NC(c2ccc(F)c(C(F)(F)F)c2)C(F)(F)F)cc2cc(C(=O)NCC(F)F)c(Cl)cc21 (stereo not drawn) [Compound 19, 6-chloro-N^5-(2,2-difluoroethyl)-1-ethyl-N^2-{2,2,2-trifluoro-1-[4-fluoro-3-(trifluoromethyl)phenyl]ethyl}-1H-indole-2,5-dicarboxamide] | 100% | 100% | 100% | – | – | – | – | – | 100% | 100% | 4.03 | 5.16 | – | –
CCn1c(C(=O)NC(c2cccc(Cl)c2)C(F)(F)F)cc2cc(C(=O)NC3(C#N)CC3)c(Cl)cc21 (stereo not drawn) [Compound 39] | 100% | 100% | 100% | 100% | 100% | 3.67 | 100% | – | – | – | – | – | – | –
Cn1c(C(=O)NC(c2cccc(Br)c2)C(F)(F)F)cc2cc(C(=O)NC3(C#N)CC3)c(Cl)cc21 (stereo not drawn) [Compound 48] | 100% | 100% | 100% | 100% | 100% | 3.39 | 100% | – | – | – | – | – | – | –
CCn1c(C(=O)NC(c2cccc(C(F)(F)F)c2)C(F)(F)F)cc2cc(C(=O)NC3(C#N)CCC3)c(Cl)cc21 (stereo not drawn) [Compound 36] | 100% | 100% | 95% | 100% | 100% | 4.09 | 100% | – | – | – | – | – | – | –
Cn1c(C(=O)NC(c2ccc(F)c(Cl)c2)C(F)(F)F)cc2cc(C(=O)NC3CC3)c(Cl)cc21 (stereo not drawn) [Compound 53] | – | – | – | 100% | 100% | 3.42 | 100% | – | – | – | – | – | – | –
CCn1c(C(=O)NC(c2ccc(F)c(C(F)(F)F)c2)C(F)(F)F)cc2cc(C(=O)NC3CCC3)c(C)cc21 (stereo not drawn) [Compound 304] | – | – | – | 100% | 100% | – | – | 100% | – | – | – | – | 4.24 | –
CCn1c(C(=O)NC(c2cccc(Cl)c2)C(F)(F)F)cc2cc(C(=O)NC3CC3)c(Cl)cc21 (stereo not drawn) [Compound 2] | 100% | 95% | 100% | 100% | 100% | 3.65 | – | 100% | – | – | – | – | – | –
CCn1c(C(=O)NC(c2cccc(C(F)(F)F)c2)C(F)(F)F)c(C#N)c2cc(C(=O)NC3(C#N)CC3)c(Cl)cc21 (stereo not drawn) [Compound 279, 6-chloro-3-cyano-N5-(1-cyanocyclopropyl)-1-ethyl-N2-{2,2,2-trifluoro-1-[3-(trifluoromethyl)phenyl]ethyl}-1H-indole-2,5-dicarboxamide] | – | – | – | – | 100% | – | 100% | – | – | 100% | – | 3.45 | – | 3.45
C#CCn1c(C(=O)NC(c2cccc(Br)c2)C(F)(F)F)cc2cc(C(=O)NC3(C#N)CC3)c(Cl)cc21 (stereo not drawn) [Compound 60] | – | – | – | 100% | 100% | 3.48 | 100% | – | – | – | – | – | – | –
CCn1c(C(=O)NC(c2ccc(F)c(F)c2)C(F)(F)F)cc2cc(C(=O)NC3(C#N)CC3)c(C)cc21 (stereo not drawn) [Compound 292] | – | – | – | 100% | 100% | – | 100% | – | – | – | – | – | 3.48 | –
CCn1c(C(=O)NC(c2ccc(F)c(C(F)(F)F)c2)C(F)(F)F)cc2cc(C(=O)NC3(C#N)CC3)c(C)cc21 (stereo not drawn) [Compound 189] | – | – | – | 100% | 100% | 3.77 | 100% | – | – | – | – | – | – | –
N#CC1(NC(=O)c2cc3cc(C(=O)NC(c4cccc(C(F)(F)F)c4)C(F)(F)F)n(Cc4ccccc4)c3cc2Cl)CC1 (stereo not drawn) [Compound 284] | – | – | – | 100% | 100% | – | 100% | – | – | – | – | – | 4.07 | –
C#CC1(NC(=O)c2cc3cc(C(=O)NC(c4cccc(C(F)(F)F)c4)C(F)(F)F)n(CC)c3cc2Cl)CC1 (stereo not drawn) [Compound 32] | 100% | 100% | 100% | 100% | – | 3.86 | 100% | – | – | – | – | – | – | –
CCN(CC)C(=O)c1cc2cc(C(=O)NC(c3ccc(F)c(Cl)c3)C(F)(F)F)n(CC)c2cc1C (stereo not drawn) [Compound 320] | – | – | – | 100% | 100% | – | 100% | – | – | – | – | – | 4.35 | –
CCn1c(C(=O)NC(c2cccc(C(F)(F)F)c2)C(F)(F)F)cc2cc(C(=O)NCCC#N)c(Cl)cc21 (stereo not drawn) [Compound 263] | – | – | – | 100% | 100% | 3.53 | 100% | – | – | – | – | – | – | –
